Assay results taken from paper PMC13210772, “Dual FLT3/MAPK14 Proteolysis-Targeting Chimera (PROTAC) Induces Potent Acute Myeloid Leukemia Cell Death” (Pharmaceuticals, 2026).

Experiments:
[1] = system: HEK293 cells; assay: Cytotoxicity in HEK293 cells (Alamar Blue); conditions: 50 µM
[2] = Non-enzymatic stability under cellular assay conditions (HPLC); type: physicochemical; conditions: compound remaining, assay medium DMEM, 37 °C
[3] = system: MOLM-13 cells; assay: Apoptosis by flow cytometry (annexin-V/propidium iodine); type: cell-based, human; conditions: 72 h
Protocol: To further assess the biological relevance of these findings, we treated MV4-11 cells with the new PROTACs, included MA49 as control, and analyzed them for early (annexin-V positive) and late apoptosis (annexin-V and propidium iodine positive) by flow cytometry. Cells in late apoptosis are more severely damaged than cells in early apoptosis. […] After 72 h, all degraders evoked equal levels of apoptosis (Figure 4c). We additionally tested these degraders in MOLM-13 cells which carry FLT3-ITD and FLT3 from a patient with AML after initial myelodysplastic syndrome.
(§1) Figure 4 Biological and biochemical characterization of the FLT3 PROTACs. (a) MV4-11 cells were incubated for 24 h with 50 nM of the indicated compounds. Immunoblotting was performed for the indicated proteins and their phosphorylation (p-) or cleavage (cl.; indicated by arrows); β-actin was used to ensure equal sample loading. (b) MV4-11 cells were treated with the indicated agents and analyzed for early and late apoptosis by flow cytometry. (c) Same as in (b) but treatment for 72 h. (d) MOLM-13 cells were treated with the indicated agents and analyzed for early and late apoptosis by flow cytometry. […] Immunoblots show the expression of the indicated proteins and their phosphorylation (p-); β-actin was used to ensure equal sample loading. All immunoblots show data from at least two independent repetitions and flow cytometry analyses were conducted thrice independently; * […], ** p < 0.01, *** p < 0.001, **** p < 0.0001.

[4] = Metabolic stability in liver microsomes
[5] = system: FLT3-ITD; assay: FLT3-ITD degradation, immunoblot in MOLM-13 cells; type: cell-based, human; conditions: 50 nM, 24 h
Source text: To verify that MA190 and MA191 trigger the depletion of FLT3-ITD and a breakdown of its downstream signaling in both MV4-11 and MOLM-13 cells, we used immunoblotting. Furthermore, we evaluated if the elimination of FLT3-ITD is inherent to the PROTAC activities of MA190 and MA191, or due to their kinase inhibitor moieties using MA68. […] The loss of FLT3-ITD was linked to a reduction of STAT5 and AKT, their phosphorylation, and the auto-phosphorylation of FLT3-ITD in both AML cell systems (Figure 4f,g).
as §1

[6] = target: MAPK14 (Homo sapiens, UniProt Q16539); assay: KINOMEscan binding assay; parameters: purchased Eurofins DiscoverX Corporation; host or cells: E. coli BL21-derived (T7 phage) or HEK-293
Protocol: Kinase-tagged T7 phage strains were prepared in an E. coli host derived from the BL21 strain. E. coli were grown to log-phase and infected with T7 phage and incubated with shaking at 32 °C until lysis. The lysates were centrifuged and filtered to remove cell debris. The remaining kinases were produced in HEK-293 cells and subsequently tagged with DNA for qPCR detection. […] The liganded beads were blocked with excess biotin and washed with blocking buffer (SeaBlock (Pierce), 1% BSA, 0.05% Tween 20, 1 mM DTT) to remove unbound ligand and to reduce non-specific binding. […] The compounds were then diluted directly into the assays such that the final concentration of DMSO was 0.9%. All reactions performed in polypropylene 384-well plate. Each was a final volume of 0.02 mL. […] The kinase concentration in the eluates was measured by qPCR.

[7] = in vitro; conditions: human, HEK293 cells
[8] = system: FLT3-ITD; assay: KINOMEscan binding assay
Procedure, shortened: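 Competition binding: DNA-tagged FLT3-ITD (phage-expressed in E. coli BL21 host or produced in HEK-293) incubated with immobilized ligand beads and compound (0.9% DMSO final). Kinase retained on beads eluted and quantified by qPCR.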

[9] = in vitro; conditions: CD-1, mouse, liver microsomes, pH 7.4

Sequence of MAPK14 (Q16539 whole entry): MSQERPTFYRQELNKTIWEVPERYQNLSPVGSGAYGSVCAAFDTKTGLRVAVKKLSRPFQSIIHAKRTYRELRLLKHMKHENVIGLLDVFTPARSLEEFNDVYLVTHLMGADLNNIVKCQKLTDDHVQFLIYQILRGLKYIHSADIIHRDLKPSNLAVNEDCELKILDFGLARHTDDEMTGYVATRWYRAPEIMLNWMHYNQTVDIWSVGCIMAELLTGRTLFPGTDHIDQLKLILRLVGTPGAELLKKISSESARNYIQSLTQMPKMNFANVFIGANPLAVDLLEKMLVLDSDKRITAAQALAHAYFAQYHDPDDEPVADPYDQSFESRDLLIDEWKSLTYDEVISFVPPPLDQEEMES

Cc1ncsc1-c1ccc([C@H](C)NC(=O)[C@@H]2C[C@@H](O)CN2C(=O)[C@@H](NC(=O)[C@H]2CC[C@H](C(=O)N3CCN(CCNC(=O)c4cc(Oc5ccc(NC(=O)Nc6cc(C(C)(C)C)on6)cc5)ccn4)CC3)CC2)C(C)(C)C)cc1 [MA191, 4-(4-(3-(5-(tert-Butyl)isoxazol-3-yl)ureido)phenoxy)-N-(2-(4-(trans-4-(((S)-1-((2S,4R)-4-hydroxy-2-(((S)-1-(4-(4-methylthiazol-5-yl)phenyl)ethyl)carbamoyl)pyrrolidin-1-yl)-3,3-dimethyl-1-oxobutan-2-yl)carbamoyl)cyclohexanecarbonyl)piperazin-1-yl)ethyl)picolinamide]
cytotoxic effects [1]: no cytotoxic effects
0 h - % ([2]; 0 h): 100%
6 h- % ([2]; 6 h): 100.3%
12 h- % ([2]; 12 h): 100.0%
24 h- % ([2]; 24 h): 99.7%
48 h- % ([2]; 48 h): 100.3%
72 h- % ([2]; 72 h): 100.3%
induction of late apoptosis [3]: most potent inducers of late apoptosis
10 min—Compound Remaining % ([4]; mouse (CD-1) liver microsomes, 25 μM, 10 min): 98.2 ± 0.9%
20 min—Compound Remaining % ([4]; mouse (CD-1) liver microsomes, 25 μM, 20 min): 97.0 ± 1.0%
30 min—Compound Remaining % ([4]; mouse (CD-1) liver microsomes, 25 μM, 30 min): 95.0 ± 1.2%
60 min—Compound Remaining % ([4]; mouse (CD-1) liver microsomes, 25 μM, 60 min): 91.2 ± 1.8%
120 min—Compound Remaining % ([4]; mouse (CD-1) liver microsomes, 25 μM, 120 min): 89.2 ± 1.0%
degraded after 2 h ([4]; mouse liver microsomes, 2 h): 10.8%
10 min - compound remaining % ([4]; single runs A and B (Table S3), 10 min, listed as MA191_B): 97%
20 min - compound remaining % ([4]; single runs A and B (Table S3), 20 min, listed as MA191_B): 98%
60 min - compound remaining % ([4]; single runs A and B (Table S3), 60 min, listed as MA191_B): 89%
120 min - compound remaining % ([4]; single runs A and B (Table S3), 120 min, listed as MA191_B): 88%
FLT3-ITD degradation [5]: eliminate FLT3-ITD
% MAPK- 14 Binding at 1 µM [6]: 89 ± 2%
viability at 24 h, 50 µM [7]: 86.9 ± 5.8%
% FLT3-ITD Binding at 1 µM [8]: 88 ± 2%
remaining at 0 h, 25 µM [9]: 100%
remaining at 10 min, 25 µM [9]: 99%
remaining at 20 min, 25 µM [9]: 96%
remaining at 0.5 h, 25 µM [9]: 94%
remaining at 1 h, 25 µM [9]: 93%
remaining at 2 h, 25 µM [9]: 91%
